Results published in paper PMC4978154, “Phase I metabolites of mephedrone display biological activity as substrates at monoamine transporters” (British Journal of Pharmacology, 2016).
Where “and” joins values, the source holds several entries; their conditions need not be identical. Identical values can stand only once. Like-named read-outs stand apart in the source and are kept apart here.

Tests used:
hDAT = biological target: T1, hDAT (Homo sapiens, UniProt Q01959); test: Transporter uptake inhibition in HEK293 cells expressing hDAT; type: cell-based; conditions: [3H]-MPP+ uptake; for IC50: mean (95% confidence interval)
T1 construct: expressed in transfected cells
Experimental: The generation of HEK293 cells stably expressing the human isoforms of DAT (hDAT) and NET (hNET) was carried out as described previously (Scholze et al., 2002). For SERT, the human isoform (hSERT) was cloned in frame with yellow fluorescent protein (Schmid et al., 2001). The generation of a stable cell line was performed as described by Hilber and colleagues (Hilber et al., 2005). HEK293 cells were maintained in humidified atmosphere (5% CO2, 37°C) in DMEM, supplemented with 10% heat‐inactivated FBS and penicillin (100 u 100 mL^−1) and streptomycin (100 μg 100 mL^−1). Selection pressure was maintained by adding geneticin (50 μg·mL^−1) to the cell culture media.
Uptake experiments were conducted as described previously (Sitte et al., 2001) with minor modifications. In brief, HEK293 cells expressing hDAT, hNET or hSERT were seeded into poly‐D‐lysine (PDL) coated 96‐well plates at a density of 40 000 cells per well. The next day, DMEM was aspirated and replaced with Krebs HEPES buffer (KHB, 25 mM HEPES, 120 mM NaCl, 5 mM KCl, 1.2 mM CaCl2, and 1.2 mM MgSO4, 5 mM D‐glucose, pH adjusted to 7.3 with NaOH) (200 μL per well), and cells were pre‐incubated with various concentrations of mephedrone or its metabolites for 5 min (50 μL per well). Subsequently, 0.1 μM of [^3H]‐5‐HT or 0.02 μM of [^3H]‐MPP^+ were added, and uptake was terminated after 1 (hSERT) or 3 min (hDAT, hNET) by washing the cells with 200 μL of ice‐cold KHB. Cells were lysed with 1% SDS, and tritium uptake was determined by scintillation counting. Nonspecific uptake was determined in the presence of 10 μM paroxetine (hSERT) or 10 μM mazindol (hDAT and hNET).
(§1) Calculations were performed using Microsoft Excel® 2010 (Microsoft Corporation, Redmond, WA, USA) and GRAPHPAD PRISM 5.0. (GraphPad Software Inc., La Jolla, CA, USA). IC50 values for uptake inhibition and EC50 values for release were determined by nonlinear regression fits. Release data expressed as AUC were analysed by one‐way ANOVA followed by Bonferroni's multiple comparison test. Microdialysis and locomotor data were analysed by two‐way ANOVA (drug treatment × time) followed by Bonferroni's test. The effect of monensin treatment on basal efflux of tritiated substrate was analysed with the Mann–Whitney test. P values less than 0.05 (i.e. P < 0.05) were considered significant. The data and statistical analysis comply with the recommendations on experimental design and analysis in pharmacology (Curtis et al., 2015).

NET = biological target: T2, NET (Rattus norvegicus, UniProt Q63380); test: Transporter release assay in rat brain synaptosomes, NET; type: biochemical; conditions: [3H]-MPP+, mean (95% confidence interval)
T2 construct: a native tissue preparation that contains plasma membrane transporters in situ; from tissue; host or cells: rat whole brain minus striatum and cerebellum, synaptosomes
Experimental: The ability of mephedrone and its metabolites to evoke release via DAT, NET and SERT was determined in rat brain synaptosomes as previously described (Baumann et al., 2012). Rats were killed with CO2, decapitated, and brains were rapidly removed and dissected on ice. Synaptosomes were prepared from striatum for DAT assays, whereas synaptosomes were prepared from whole brain minus striatum and cerebellum for the NET and SERT assays. [^3H]‐MPP^+ (9 nM) was used as the radiolabelled substrate for DAT and NET, whereas [^3H]‐5‐HT (5 nM) was used as the radiolabelled substrate for SERT. All buffers used in the release assays contained 1 μM reserpine to block vesicular uptake of substrates. The selectivity of assays was optimized for a single transporter by including unlabelled compounds [nomifensine and 1‐(2‐diphenylmethoxyethyl)‐4‐(3‐phenylpropyl)piperazine dihydrochloride (GBR12935) for SERT; GBR12935 and citalopram for NET; citalopram and desipramine for DAT] to prevent the uptake of [^3H]‐MPP^+ or [^3H]‐5‐HT by competing transporters. Synaptosomes were preloaded with radiolabelled substrate in Krebs‐phosphate buffer, which consisted of 126 mM NaCl, 2.4 mM KCl, 0.5 mM KH2PO4, 1.1 mM CaCl2, 0.83 mM MgCl2, 0.5 mM Na2SO4, 11.1 mM glucose, 13.7 mM Na2HPO4, 1 mg·mL^−1 ascorbic acid and 50 μM pargyline (pH = 7.4) for 1 h (steady state). […] Assays were terminated by vacuum filtration, and retained radioactivity was quantified by liquid scintillation counting.
as §1, with “(GraphPad Software Inc., La Jolla, CA, USA).” left out, “P values less than 0.05 (i.e. P < 0.05) were considered significant. The data and statistical analysis comply with the recommendations on experimental design and analysis in pharmacology (Curtis et al., 2015).” left out

SERT = biological target: T3, SERT (Rattus norvegicus, UniProt P31652); test: Transporter release assay in rat brain synaptosomes, SERT; type: biochemical; conditions: [3H]-5-HT; for EC50: mean (95% confidence interval)
T3 construct: a native tissue preparation that contains plasma membrane transporters in situ; from tissue; host or cells: rat whole brain minus striatum and cerebellum, synaptosomes
Experimental: The ability of mephedrone and its metabolites to evoke release via DAT, NET and SERT was determined in rat brain synaptosomes as previously described (Baumann et al., 2012). Rats were killed with CO2, decapitated, and brains were rapidly removed and dissected on ice. Synaptosomes were prepared from striatum for DAT assays, whereas synaptosomes were prepared from whole brain minus striatum and cerebellum for the NET and SERT assays. [^3H]‐MPP^+ (9 nM) was used as the radiolabelled substrate for DAT and NET, whereas [^3H]‐5‐HT (5 nM) was used as the radiolabelled substrate for SERT. All buffers used in the release assays contained 1 μM reserpine to block vesicular uptake of substrates. The selectivity of assays was optimized for a single transporter by including unlabelled compounds [nomifensine and 1‐(2‐diphenylmethoxyethyl)‐4‐(3‐phenylpropyl)piperazine dihydrochloride (GBR12935) for SERT; GBR12935 and citalopram for NET; citalopram and desipramine for DAT] to prevent the uptake of [^3H]‐MPP^+ or [^3H]‐5‐HT by competing transporters. Synaptosomes were preloaded with radiolabelled substrate in Krebs‐phosphate buffer, which consisted of 126 mM NaCl, 2.4 mM KCl, 0.5 mM KH2PO4, 1.1 mM CaCl2, 0.83 mM MgCl2, 0.5 mM Na2SO4, 11.1 mM glucose, 13.7 mM Na2HPO4, 1 mg·mL^−1 ascorbic acid and 50 μM pargyline (pH = 7.4) for 1 h (steady state). Assays were initiated by adding 850 μL of preloaded synaptosomes to 150 μL of test drug. Dose–response curves were generated using eight different concentrations of mephedrone, nor‐mephedrone or 4‐OH‐mephedrone. Assays were terminated by vacuum filtration, and retained radioactivity was quantified by liquid scintillation counting.
as §1

[1] = test system: extracellular dopamine in rat nucleus accumbens; test: Microdialysis in rat nucleus accumbens, dialysate dopamine; type: in vivo; conditions: versus saline
Experimental: In vivo microdialysis procedures were carried out as previously described with minor modifications (Baumann et al., 2012). Briefly, male rats anaesthetized with sodium pentobarbital (60 mg·kg^−1, i.p.) received surgically implanted jugular catheters, and intracerebral guide cannulae aimed at the nucleus accumbens (AP +1.6 mm, ML −1.7 mm relative to bregma; −6.2 mm relative to dura) (Paxinos and Watson, 2007). After a 7–10 day recovery, each rat was placed into a chamber equipped with photobeams for the detection of motor parameters (TruScan, Harvard Apparatus, Holliston, MA, USA) and allowed to acclimatize overnight. Food and water were available ad libitum during the acclimatization period. On the following morning, catheters were attached to PE 50 extension tubes, and 0.5 × 2 mm microdialysis probes (CMA/12, Harvard Apparatus, Holliston, MA, USA) were inserted into the guide cannulae. Ringers' solution (150 mM NaCl, 2.8 mM KCl and 2.0 mM CaCl2) was perfused through the probes at 0.6 μL·min^−1 for 3 h. To commence experiments, dialysate samples ([…]) were collected at 20 min intervals, and drug or saline treatments were given after three baseline samples were obtained. Rats received two sequential i.v. injections of mephedrone or its metabolites, with 1 mg·kg^−1 administered at time zero, followed by 3 mg·kg^−1 60 min later. Saline was administered using the same schedule in a separate group of rats. Dialysate concentrations of dopamine and 5‐HT were quantified using HPLC coupled to electrochemical detection (Baumann et al., 2012). Chromatographic data were exported to an Empower software system (Waters, Inc., Milford, MA, USA) for peak identification, integration and analysis.
Correct probe placements were assessed after the microdialysis experiments. Rats were killed by CO2 narcosis then decapitated. Brains were quickly removed and immersion fixed in 10% paraformaldehyde for 1 week. Subsequently, brains were sectioned on a cryostat, and the location of each probe tip was verified by inspection of photographic images of the brain taken with a digital camera using the macro lens setting.
as §1

[2] = 3 mg·kg−1 i.v. (60 min after 1 mg·kg−1)
[3] = IC50 on uptake mediated by hDAT
[4] = EC50 on transporter mediated efflux, NET
[5] = EC50 on transporter mediated efflux, SERT

T3 sequence (P31652 whole entry): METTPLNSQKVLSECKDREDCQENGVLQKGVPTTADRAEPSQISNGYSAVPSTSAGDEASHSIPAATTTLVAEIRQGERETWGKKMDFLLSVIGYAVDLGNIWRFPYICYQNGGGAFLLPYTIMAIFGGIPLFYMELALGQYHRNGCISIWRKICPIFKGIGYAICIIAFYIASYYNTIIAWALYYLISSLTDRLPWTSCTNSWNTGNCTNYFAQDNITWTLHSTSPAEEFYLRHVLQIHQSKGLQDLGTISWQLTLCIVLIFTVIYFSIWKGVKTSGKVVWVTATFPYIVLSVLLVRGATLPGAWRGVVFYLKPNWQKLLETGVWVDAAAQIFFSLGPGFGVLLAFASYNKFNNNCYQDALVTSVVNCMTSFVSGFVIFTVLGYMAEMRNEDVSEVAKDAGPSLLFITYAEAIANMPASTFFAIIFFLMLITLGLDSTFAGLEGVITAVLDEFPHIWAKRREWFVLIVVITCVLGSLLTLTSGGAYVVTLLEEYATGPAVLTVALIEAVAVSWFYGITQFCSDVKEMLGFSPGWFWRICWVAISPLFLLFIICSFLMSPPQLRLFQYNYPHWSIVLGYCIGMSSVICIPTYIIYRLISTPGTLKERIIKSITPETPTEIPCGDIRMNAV
T2 sequence (Q63380 1-617): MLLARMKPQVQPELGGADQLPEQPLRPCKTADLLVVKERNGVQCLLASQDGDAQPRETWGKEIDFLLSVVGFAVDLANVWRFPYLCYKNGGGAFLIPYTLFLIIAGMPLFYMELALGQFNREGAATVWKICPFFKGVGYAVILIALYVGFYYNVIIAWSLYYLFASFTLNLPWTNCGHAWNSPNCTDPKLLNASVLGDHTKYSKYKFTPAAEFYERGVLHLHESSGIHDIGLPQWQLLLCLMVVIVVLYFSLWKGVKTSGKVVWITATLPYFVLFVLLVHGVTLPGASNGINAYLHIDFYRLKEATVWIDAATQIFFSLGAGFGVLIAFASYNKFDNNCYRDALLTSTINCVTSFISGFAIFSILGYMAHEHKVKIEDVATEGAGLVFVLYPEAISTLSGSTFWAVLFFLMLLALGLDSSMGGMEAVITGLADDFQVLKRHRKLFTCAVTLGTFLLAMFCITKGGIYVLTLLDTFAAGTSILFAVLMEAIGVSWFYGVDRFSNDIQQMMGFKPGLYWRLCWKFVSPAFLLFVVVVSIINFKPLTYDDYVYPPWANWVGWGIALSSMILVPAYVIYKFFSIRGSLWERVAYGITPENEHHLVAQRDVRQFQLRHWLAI
T1 sequence (Q01959 whole entry): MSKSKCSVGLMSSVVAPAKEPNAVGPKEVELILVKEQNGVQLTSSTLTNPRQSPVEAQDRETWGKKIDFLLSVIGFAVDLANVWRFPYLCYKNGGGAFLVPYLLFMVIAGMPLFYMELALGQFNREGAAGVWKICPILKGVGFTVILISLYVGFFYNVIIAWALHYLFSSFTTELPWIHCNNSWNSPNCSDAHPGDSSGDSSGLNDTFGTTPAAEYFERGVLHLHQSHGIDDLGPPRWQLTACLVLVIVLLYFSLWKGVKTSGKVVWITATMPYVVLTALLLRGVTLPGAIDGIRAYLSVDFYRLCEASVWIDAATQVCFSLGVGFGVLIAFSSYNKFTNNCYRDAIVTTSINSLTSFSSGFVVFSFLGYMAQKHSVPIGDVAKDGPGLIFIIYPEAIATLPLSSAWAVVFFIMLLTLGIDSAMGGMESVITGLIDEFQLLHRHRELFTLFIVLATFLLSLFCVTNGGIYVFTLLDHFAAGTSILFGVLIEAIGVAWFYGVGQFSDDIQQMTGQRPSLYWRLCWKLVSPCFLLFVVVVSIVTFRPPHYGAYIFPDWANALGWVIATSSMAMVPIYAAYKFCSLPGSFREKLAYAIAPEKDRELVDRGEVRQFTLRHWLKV

CNC(C)C(=O)c1ccc(CO)cc1.Cl (stereo not drawn) [4‐OH‐mephedrone, 1‐(4‐(hydroxymethyl)phenyl)‐2‐(methylamino)propan‐1‐one hydrochloride]
efficacy of uptake inhibition at hDAT (hDAT): fully efficacious inhibitors of uptake
IC50 (hDAT; read-out: IC50 on uptake mediated by hDAT): 2920 nM
EC50 (NET; read-out: EC50 on transporter mediated efflux, NET): 150 nM
rightward shift of SERT release curve compared with mephedrone (SERT): 10 fold
EC50 (SERT; read-out: EC50 on transporter mediated efflux, SERT): 2000 nM and 2010 nM
effect on dialysate dopamine ([1]; 1 mg·kg−1 i.v.): no significant impact
effect on dialysate dopamine [1, 2]: no significant impact

CNC(C)C(=O)c1ccc(C)cc1.Cl (stereo not drawn) [Mephedrone, 2‐Methylamino‐1‐(p‐tolyl)propan‐1‐one hydrochloride]
IC50 (hDAT; [3]): 770 nM
efficacy of uptake inhibition at hDAT (hDAT): fully efficacious inhibitors of uptake
EC50 (NET; [4]): 90 nM
EC50 (SERT; [5]): 210 nM
effect on dialysate dopamine ([1]; 1 mg·kg−1 i.v.): increased dopamine
effect on dialysate dopamine [1, 2]: elevated dopamine

Cc1ccc(C(=O)C(C)N)cc1.Cl (stereo not drawn) [Nor‐mephedrone, 2‐amino‐1‐(p‐tolyl)propan‐1‐one hydrochloride]
IC50 (hDAT; [3]): 6350 nM
efficacy of uptake inhibition at hDAT (hDAT): fully efficacious inhibitors of uptake
EC50 (NET; [4]): 100 nM
EC50 (SERT; [5]): 200 nM and 210 nM
effect on dialysate dopamine [1, 2]: elevated dopamine
